{"source": "patent EP3024823B1", "about": "“INTERCALATING AMINO ACIDS” (priority 2013, dated 2015)", "key": {"PylRS_AF": {"biological_target": "T1, PylRS_AF (Methanosarcina mazei, UniProt Q8PWY1, Y306A/Y384F)", "T1 construct": "expressed in transfected cells", "T1 sequence (Q8PWY1 whole entry Y306A/Y384F)": "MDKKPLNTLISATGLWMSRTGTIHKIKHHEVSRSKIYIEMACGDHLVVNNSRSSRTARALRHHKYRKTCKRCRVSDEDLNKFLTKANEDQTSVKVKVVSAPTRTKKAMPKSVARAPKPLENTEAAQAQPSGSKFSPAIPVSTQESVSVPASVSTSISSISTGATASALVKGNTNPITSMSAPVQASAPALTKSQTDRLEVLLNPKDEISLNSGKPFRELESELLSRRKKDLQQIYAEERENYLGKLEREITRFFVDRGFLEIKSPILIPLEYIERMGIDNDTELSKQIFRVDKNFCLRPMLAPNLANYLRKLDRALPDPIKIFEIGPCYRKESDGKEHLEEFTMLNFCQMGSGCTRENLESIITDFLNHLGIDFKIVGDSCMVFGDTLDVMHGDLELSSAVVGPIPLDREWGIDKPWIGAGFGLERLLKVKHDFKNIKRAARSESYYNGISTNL", "experiment": "PylRS_AF-mediated amber suppression in GFP-Y39TAG (GFP expression in E. coli)", "type": "cell-based", "settings": "for expression of full-length GFP by cellular fluorescence / yield of purified GFP-Y39→ncAA / GFP expression, SDS PAGE of Ni-NTA-purified GFP: E. coli; for expression of full-length GFP by cellular fluorescence / yield of purified GFP-Y39→ncAA: PylRS_AF; for GFP expression, SDS PAGE of Ni-NTA-purified GFP: pREP-PylRS_AF, pBAD_GFP-Y39TAG; for efficiency and accuracy of incorporation into peptides: Figure 2, whole cell fluorescence", "from_the_text": "(§1) Protein Expression and Purification. All proteins were expressed from pBAD vectors and purified using a C-terminal His6 tag. For expression of proteins containing ncAA, E. coli cells were co-transformed with pBAD plasmid containing the target gene with amber codon (pBAD_GFP-39TAG, pBAD_TRX-R74-His6_TAG, pBAD_CmodC or pBAD_TAT, all conferring ampicillin resistance) and a plasmid coding for the respective PylRS mutant and tRNA^Pyl (pEVOL_PylRS_AF, pREP_PylRS_wt, _GF, _AF and PylRS_AF single or double alanine mutants). A single clone was picked and grown in Luria Broth (LB) media supplemented with suited antibiotics at 37 °C and 200 rpm shaking. 0.1 ml of this culture was used to inoculate 5 ml LB supplemented with the same antibiotics and different concentrations of the ncAA. The culture was incubated at 37 °C and 200 rpm shaking until OD600 of ∼0.4 - 0.6 and protein expression was induced with 0.02% (w/v) L-arabinose. The culture was harvested after 4 - 6 h of incubation by centrifugation (10 min, 3320 x g, room temperature). The pellet was lysed with B-Per lysis reagent (Thermo scientific) containing 1x Complete (-EDTA) protease inhibitor cocktail (Roche) and shaking at room temperature at 1400 rpm for 30 min. The suspension was pelleted by centrifugation (5 min, 20817 x g, room temperature) the supernatant was extracted with Ni-NTA agarose slurry (Qiagen) at an imidazole concentration of 10 mM by shaking at room temperature. The beads were washed with 350 µl 4x PBS and or two wash buffers (50 mM NaH2PO4, 300 mM NaCl, pH = 8.0, containing 20 - 50 mM imidazole). Proteins were eluted with elution buffer (50 mM NaH2PO4, 300 mM NaCl, pH = 8.0, containing 500 mM imidazole). For GFP-TAT protein containing ncAA 6, expressions were carried out in BL21 (DE3) gold and purification was conducted as above, but under denaturing conditions (8 M urea). Protein was refolded by stepwise dialysis against 20 mM Tris-HCl, pH = 8.0, 10 % glycerole with decreasing urea concentrations. Purity of the obtained proteins was analyzed by SDS PAGE and staining with Gelcode blue (Thermo Scientific) and quantified using a BCA assay (Pierce, Thermo Scientific). For GFP yield determination based on whole cell fluorescence, cell pellets from 3 ml expressions were washed twice with 3 ml 4x PBS (by centrifugation for 10 min at 3320 x g at room temperature and resuspension) and fluorescence was determined using a Tecan M200 plate reader using and excitation wavelength of 475 nm and an emission wavelength of 510 nm. Fluorescence values were corrected for cell densities based on OD600 - measurements. Generally, expressions were carried out in E. coli Top10 using carbenicillin selection for pEVOL plasmids and tetracyclin selection for pREP plasmids. Wild type thioredoxin and TRX-R74→6 were expressed in E. coli BL21 (DE3) gold cells. Expressed C-terminal fragment of PylRS_AF (aa 188-454) was stored in 10 mM HEPES-Na+, pH = 7.5, 5 mM MgCl2, 300 mM NaCl at -80 °C before use.\nNext, the tRNA^Pyl/PylRS pair of Methanosarcina mazei was analyzed for its capability to mediate the selective incorporation of ncAA 3 into proteins in E. coli in response to the amber codon, TAG. E. coli were co-transformed with plasmids pEVOL-PylRS_wt (encoding wild type M. mazei PylRS and tRNA^Pyl) and pBAD_GFP-39TAG (encoding GFP with an amber mutation at position Y39 and a C-terminal His6 tag) and the culture induced with L-arabinose in the presence or absence of 1 mM ncAA 3 or Nε-(tert-butyloxycarbonyl)-L-lysine (Boc-Lys, ncAA 2), which is an efficiently processed substrate of PylRS_wt. However, expression of full-length GFP was only detected for ncAA 2 by cellular fluorescence. […] Among amino acids that constitute the methyl-pyrroline binding pocket of PylRS, Y306 is a main component of the rear part and plays a critical role in discriminating against larger, Nε-carbamate-linked lysine derivatives. […]"}, "PylRS_wt": {"biological_target": "T2, PylRS_wt (Methanosarcina mazei, UniProt Q8PWY1)", "T2 construct": "expressed in transfected cells", "experiment": "PylRS_wt-mediated amber suppression in GFP-Y39TAG (GFP expression in E. coli)", "type": "cell-based", "settings": "for expression of full-length GFP by cellular fluorescence: pEVOL-PylRS_wt, pBAD_GFP-39TAG, 1 mM ncAA; for GFP expression, SDS PAGE of Ni-NTA-purified GFP: pREP-PylRS_wt, pBAD_GFP-Y39TAG", "from_the_text": "as §1, with “Protein was refolded by stepwise dialysis against 20 mM Tris-HCl, pH = 8.0, 10 % glycerole with decreasing urea concentrations.” left out, “Generally, expressions were carried out in E. coli Top10 using carbenicillin selection for pEVOL plasmids and tetracyclin selection for pREP plasmids. Wild type thioredoxin and TRX-R74→6 were expressed in E. coli BL21 (DE3) gold cells. Expressed C-terminal fragment of PylRS_AF (aa 188-454) was stored in 10 mM HEPES-Na+, pH = 7.5, 5 mM MgCl2, 300 mM NaCl at -80 °C before use.” left out\nNext, the tRNA^Pyl/PylRS pair of Methanosarcina mazei was analyzed for its capability to mediate the selective incorporation of ncAA 3 into proteins in E. coli in response to the amber codon, TAG. […] However, expression of full-length GFP was only detected for ncAA 2 by cellular fluorescence. […]"}, "PylRS_GF": {"biological_target": "T3, PylRS_GF (Methanosarcina mazei, UniProt Q8PWY1, Y306G/Y384F)", "T3 construct": "expressed in transfected cells", "T3 sequence (Q8PWY1 whole entry Y306G/Y384F)": "as the sequence (Q8PWY1 whole entry Y306A/Y384F) above, with A306G counted along it", "experiment": "PylRS_GF-mediated amber suppression in GFP-Y39TAG (GFP expression in E. coli)", "type": "cell-based", "settings": "pREP-PylRS_GF (Y306G), pBAD_GFP-Y39TAG", "from_the_text": "(§2) Protein Expression and Purification. All proteins were expressed from pBAD vectors and purified using a C-terminal His6 tag. For expression of proteins containing ncAA, E. coli cells were co-transformed with pBAD plasmid containing the target gene with amber codon (pBAD_GFP-39TAG, pBAD_TRX-R74-His6_TAG, pBAD_CmodC or pBAD_TAT, all conferring ampicillin resistance) and a plasmid coding for the respective PylRS mutant and tRNA^Pyl (pEVOL_PylRS_AF, pREP_PylRS_wt, _GF, _AF and PylRS_AF single or double alanine mutants). A single clone was picked and grown in Luria Broth (LB) media supplemented with suited antibiotics at 37 °C and 200 rpm shaking. 0.1 ml of this culture was used to inoculate 5 ml LB supplemented with the same antibiotics and different concentrations of the ncAA. […] Purity of the obtained proteins was analyzed by SDS PAGE and staining with Gelcode blue (Thermo Scientific) and quantified using a BCA assay (Pierce, Thermo Scientific). For GFP yield determination based on whole cell fluorescence, cell pellets from 3 ml expressions were washed twice with 3 ml 4x PBS (by centrifugation for 10 min at 3320 x g at room temperature and resuspension) and fluorescence was determined using a Tecan M200 plate reader using and excitation wavelength of 475 nm and an emission wavelength of 510 nm. Fluorescence values were corrected for cell densities based on OD600 - measurements. […]"}, "PylRS_AF_D408A": {"biological_target": "T4, PylRS_AF_D408A (Methanosarcina mazei, UniProt Q8PWY1, D408A/Y306A/Y384F)", "T4 construct": "expressed in transfected cells", "T4 sequence (Q8PWY1 whole entry Y306A/Y384F/D408A)": "as the sequence (Q8PWY1 whole entry Y306A/Y384F) above, with D408A counted along it", "experiment": "PylRS_AF D408A-mediated amber suppression in GFP-Y39TAG (cellular GFP expression in E. coli)", "type": "cell-based", "settings": "pREP_PylRS_AF_D408A, pBAD_GFP-39TAG", "from_the_text": "as §2"}, "PylRS_AF_L407A": {"biological_target": "T5, PylRS_AF_L407A (Methanosarcina mazei, UniProt Q8PWY1, L407A/Y306A/Y384F)", "T5 construct": "expressed in transfected cells", "T5 sequence (Q8PWY1 whole entry Y306A/Y384F/L407A)": "as the sequence (Q8PWY1 whole entry Y306A/Y384F) above, with L407A counted along it", "experiment": "PylRS_AF L407A-mediated amber suppression in GFP-Y39TAG (cellular GFP expression in E. coli)", "type": "cell-based", "settings": "pREP_PylRS_AF_L407A, pBAD_GFP-39TAG", "from_the_text": "as §2"}, "Solubility of the ncAA": {"experiment": "Solubility of the ncAA", "type": "physicochemical", "settings": "limited solubility"}, "[1]": {"settings": "pBAD_GFP-39TAG, 1 mM ncAA, non-optimized conditions"}}}
{"compound": "N[C@@H](CCCCNC(=O)c1nc2ccccc2nc1O)C(=O)O", "note": "[Nε-(2-hydroxyquinoxaline-3-carbonyl)-L-lysine]", "values": [{"measurement": "expression of full-length GFP by cellular fluorescence", "setting": "PylRS_AF; pBAD_GFP-39TAG", "result": "no significant fluorescence increase compared to background"}]}
{"compound": "N[C@@H](CCCCNC(=O)c1cnc2ccccc2n1)C(=O)O", "note": "[ncAA 3, Nε-(quinoxaline-2-carbonyl)-L-lysine]", "values": [{"measurement": "expression of full-length GFP by cellular fluorescence", "setting": "PylRS_wt", "result": "failure of amber suppression"}, {"measurement": "GFP expression, SDS PAGE of Ni-NTA-purified GFP", "setting": "PylRS_wt", "result": "not recognized"}, {"measurement": "yield of purified GFP-Y39→ncAA", "setting": "PylRS_AF; [1]", "result": 1.4, "unit": "mg/L"}]}
{"compound": "CC(C)(C)OC(=O)NCCCC[C@H](N)C(=O)O", "note": "[ncAA 2, Nε-(tert-butyloxycarbonyl)-L-lysine, reference compound]", "values": [{"measurement": "expression of full-length GFP by cellular fluorescence", "setting": "PylRS_wt", "result": "detected"}, {"measurement": "GFP expression, SDS PAGE of Ni-NTA-purified GFP", "setting": "PylRS_GF", "result": "significant expression"}, {"measurement": "cellular GFP expression", "setting": "PylRS_AF_D408A", "result": "significant levels"}, {"measurement": "GFP expression, SDS PAGE of Ni-NTA-purified GFP", "setting": "PylRS_AF", "result": "significant expression"}, {"measurement": "cellular GFP expression", "setting": "PylRS_AF_L407A", "result": "significant levels"}]}
{"compound": "N[C@@H](CCCCNC(=O)c1ccc2ccccc2c1)C(=O)O", "note": "[ncAA 7, Nε-(naphtalene-2-carbonyl)-L-lysine]", "values": [{"measurement": "expression of full-length GFP by cellular fluorescence", "setting": "PylRS_AF; pBAD_GFP-39TAG", "result": "no expression"}, {"measurement": "solubility", "setting": "Solubility of the ncAA", "result": "~100", "unit": "µM"}]}
{"compound": "N[C@@H](CCCCNC(=O)c1ccc2ccccc2n1)C(=O)O", "note": "[ncAA 5, Nε-(quinoline-2-carbonyl)-L-lysine]", "values": [{"measurement": "GFP expression, SDS PAGE of Ni-NTA-purified GFP", "setting": "PylRS_wt", "result": "not recognized"}, {"measurement": "GFP expression, SDS PAGE of Ni-NTA-purified GFP", "setting": "PylRS_GF", "result": "significant expression"}, {"measurement": "cellular GFP expression", "setting": "PylRS_AF_D408A", "result": "significant levels"}, {"measurement": "yield of purified GFP-Y39→ncAA", "setting": "PylRS_AF; standard expression conditions", "result": "> 11", "unit": "mg/L"}, {"measurement": "yield of purified GFP-Y39→ncAA", "setting": "PylRS_AF; [1]", "result": 4.5, "unit": "mg/L"}, {"measurement": "GFP expression, SDS PAGE of Ni-NTA-purified GFP", "setting": "PylRS_AF", "result": "significant expression"}, {"measurement": "cellular GFP expression", "setting": "PylRS_AF_L407A", "result": "significant levels"}]}
{"compound": "N[C@@H](CCCCNC(=O)c1cc2ccccc2cn1)C(=O)O", "note": "[ncAA 6, Nε-(isoquinoline-3-carbonyl)-L-lysine]", "values": [{"measurement": "yield of purified GFP-Y39→ncAA", "setting": "PylRS_AF; [1]", "result": 1.4, "unit": "mg/L"}, {"measurement": "efficiency and accuracy of incorporation into peptides", "setting": "PylRS_AF", "result": "best results"}]}
{"compound": "(S)-2-amino-6-(((benzo[h]quinolin-2-ylmethoxy)carbonyl)amino) hexanoic acid [ncAA 8]", "values": [{"measurement": "efficiency and accuracy of incorporation into peptides", "setting": "PylRS_AF", "result": "best results"}]}
